Tested on: 616215-338-R-J1-PDC spheroid with HUVEC/MSC, viability
Test: Anticancer human tumor 616215-338-R-J1-PDC patient-derived colon adenocarcinoma cell line growth inhibition [TAK]
Conditions: for IC50: curve of first compound; for viability, T/C: stronger effect = lower value
Excerpt: Combinatorial screen of targeted agents with TAK-243 and ipatasertib in multi-cell type tumor spheroids
A high-throughput screen of multi-cell type tumor spheroids was designed to identify active combinations of targeted small molecules and TAK-243 or ipatasertib. Complex spheroids include a stromal component modeled by human endothelial cells (HUVEC) and fibroblasts modeled by human mesenchymal stem cells (MSCs). The concentration ranges selected for each drug and investigational agent were based upon clinically achievable concentrations if the clinical Cmax of the agent was known.
Compounds. The drugs and investigational agents: TAK-243 (785004), ipatasertib (767898), everolimus (733504), selumetinib (741078), bortezomib (756655), trametinib (758246), ixazomib (758254), vemurafenib (761431), dabrafenib (764134), sapanisertib (764658), alpelisib (765974), and copanlisib (816437), were obtained from the National Cancer Institute (NCI) Developmental Therapeutics Program Chemical Repository. The FDA-approved anticancer drug set is available from the NCI Developmental Therapeutics Program. […] The stock solutions were prepared in dimethyl sulfoxide (DMSO, Sigma-Aldrich, St. Louis, MO, cat. D2650) at 800-fold the tested concentration and stored at -70 degrees C prior to their use. All drugs and investigational agents were tested over a range starting from a high concentration at or near the clinical Cmax and decreasing in half-log increments. If the clinical Cmax for an agent had not been determined, the highest concentration tested was 10 microM.
NCI60 Cell Culture. NCI60 cell lines were obtained from the NCI Developmental Therapeutics Program Tumor Repository. For each lot of cells, the Repository performed Applied Biosystems AmpFLSTR Identifiler testing with PCR amplification to confirm consistency with the published Identifier STR profile for each cell line. Cells were kept in continuous culture for no more than 20 passages. The optimal seeding densities for each of the cell lines at each time point assessed were determined prior to performing the concentration response studies. Briefly, the NCI60 human tumor lines were grown as monolayers in RPMI 1640 medium supplemented with 10% FBS and 2 mmol/L L-glutamine.
An additional 2 lines were from the NCI60 cell line panel including melanomas, MALME-3M and SK-MEL-2. Pooled donor human umbilical vein endothelial cells (HUVEC, Lonza, cat. CC-2519) and human mesenchymal stem cells (hMSC, Lonza, cat. PT-2501) were purchased from Lonza (Walkersville, MD).
PDMR cell lines were grown in complete medium (DC medium): Dulbecco's modified Eagle's medium (DMEM)/F12 supplemented with 5% fetal bovine serum (FBS), 2 mM L-glutamine, 100 U/mL penicillin and 100 µg/ml streptomycin, 0.4 µg/ml hydrocortisone, 10 ng/ml epidermal growth factor (EGF) recombinant human protein, 24 µg/mL adenine, and 0.1 mg/mL primocin. During culture from frozen stock vials, PDMR cells were cultured in the same medium containing 10 µM Y-27632 (see Table 3). The PDCs were cultured in complete DMEM/F12 media without 10 microM Y-27632 dihydrochloride for at least two passages prior to the screen. The pooled donor HUVEC and hMSC were cultured in endothelial cell growth medium 2 (PromoCell, Heidelberg, Germany, cat. C-22011) and mesenchymal stem cell growth medium 2 (PromoCell, cat. C-28009), respectively. For all experiments, HUVEC and hMSC were used at passages </=5.
For the pre-screen, cell seeding densities were determined from a titration spanning the range from 5,000 to 313 cells per well. The mct-spheroids including 60% malignant cells, 25% HUVEC and 15% MSC dispensed as a mixture into U-bottom Ultra-Low Attachment 384-well plates (Corning, NY)
High-throughput Drug Combination Screening.
Prior to their inoculation into 384-well plates, malignant cells, HUVEC, and hMSC were removed from T flasks using TrypLE express (Thermo Fisher Scientific, cat. 12605036) and harvested by centrifugation for 5 min at 233 x g. […]
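Also: spheroids exposed to drugs for 7 days before readout.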

CCCS(=O)(=O)Nc1ccc(F)c(C(=O)c2c[nH]c3ncc(-c4ccc(Cl)cc4)cc23)c1F + CC(C)NCC(C(=O)N1CCN(c2ncnc3c2C(C)CC3O)CC1)c1ccc(Cl)cc1
IC50 (second compound 0.3 µM): 7500 nM | IC50 (second compound 0.949 µM): 6750 nM | IC50 (second compound 3 µM): 2760 nM | IC50 (second compound 9.49 µM): < 316 nM | IC50 (second compound 30 µM): < 316 nM | viability, T/C (second compound 0.3 µM, first compound 0.316 µM): 90.8% | viability, T/C (second compound 0.3 µM, first compound 1 µM): 98.1% | viability, T/C (second compound 0.3 µM, first compound 3.16 µM): 103% | viability, T/C (second compound 0.3 µM, first compound 10 µM): 23.8% | viability, T/C (second compound 0.3 µM, first compound 31.6 µM): 3.87% | viability, T/C (second compound 0.3 µM, first compound 100 µM): 75% | viability, T/C (second compound 0.949 µM, first compound 0.316 µM): 107% | viability, T/C (second compound 0.949 µM, first compound 1 µM): 114% | viability, T/C (second compound 0.949 µM, first compound 3.16 µM): 104% | viability, T/C (second compound 0.949 µM, first compound 10 µM): 16.6% | viability, T/C (second compound 0.949 µM, first compound 31.6 µM): 1.77% | viability, T/C (second compound 0.949 µM, first compound 100 µM): 46.8% | viability, T/C (second compound 3 µM, first compound 0.316 µM): 90.5% | viability, T/C (second compound 3 µM, first compound 1 µM): 76.8% | viability, T/C (second compound 3 µM, first compound 3.16 µM): 48% | viability, T/C (second compound 3 µM, first compound 10 µM): 7.53% | viability, T/C (second compound 3 µM, first compound 31.6 µM): 0.1% | viability, T/C (second compound 3 µM, first compound 100 µM): 3.35% | viability, T/C (second compound 9.49 µM, first compound 0.316 µM): 29.1% | viability, T/C (second compound 9.49 µM, first compound 1 µM): 28.8% | viability, T/C (second compound 9.49 µM, first compound 3.16 µM): 23.2% | viability, T/C (second compound 9.49 µM, first compound 10 µM): 3.54% | viability, T/C (second compound 9.49 µM, first compound 31.6 µM): 0.12% | viability, T/C (second compound 9.49 µM, first compound 100 µM): 1.39% | viability, T/C (second compound 30 µM, first compound 0.316 µM): 14.1% | viability, T/C (second compound 30 µM, first compound 1 µM): 15.2% | viability, T/C (second compound 30 µM, first compound 3.16 µM): 9.06% | viability, T/C (second compound 30 µM, first compound 10 µM): 0.4% | viability, T/C (second compound 30 µM, first compound 31.6 µM): 0.13% | viability, T/C (second compound 30 µM, first compound 100 µM): 0.3%

COC1CC2CCC(C)C(O)(O2)C(=O)C(=O)N2CCCCC2C(=O)OC(C(C)CC2CCC(OCCO)C(OC)C2)CC(=O)C(C)C=C(C)C(O)C(OC)C(=O)C(C)CC(C)C=CC=CC=C1C (stereo not given) + CC(C)NCC(C(=O)N1CCN(c2ncnc3c2C(C)CC3O)CC1)c1ccc(Cl)cc1
IC50 (second compound 0.3 µM): > 100 nM | IC50 (second compound 0.949 µM): > 100 nM | IC50 (second compound 3 µM): 2.28 nM | IC50 (second compound 9.49 µM): < 0.316 nM | IC50 (second compound 30 µM): < 0.316 nM | viability, T/C (second compound 0.3 µM, first compound 0.000316 µM): 133% | viability, T/C (second compound 0.3 µM, first compound 0.001 µM): 119% | viability, T/C (second compound 0.3 µM, first compound 0.00316 µM): 137% | viability, T/C (second compound 0.3 µM, first compound 0.01 µM): 129% | viability, T/C (second compound 0.3 µM, first compound 0.0316 µM): 130% | viability, T/C (second compound 0.3 µM, first compound 0.1 µM): 104% | viability, T/C (second compound 0.949 µM, first compound 0.000316 µM): 119% | viability, T/C (second compound 0.949 µM, first compound 0.001 µM): 125% | viability, T/C (second compound 0.949 µM, first compound 0.00316 µM): 111% | viability, T/C (second compound 0.949 µM, first compound 0.01 µM): 97.1% | viability, T/C (second compound 0.949 µM, first compound 0.0316 µM): 82.5% | viability, T/C (second compound 0.949 µM, first compound 0.1 µM): 80.3% | viability, T/C (second compound 3 µM, first compound 0.000316 µM): 61.5% | viability, T/C (second compound 3 µM, first compound 0.001 µM): 59.3% | viability, T/C (second compound 3 µM, first compound 0.00316 µM): 45.6% | viability, T/C (second compound 3 µM, first compound 0.01 µM): 38.3% | viability, T/C (second compound 3 µM, first compound 0.0316 µM): 35.8% | viability, T/C (second compound 3 µM, first compound 0.1 µM): 32.1% | viability, T/C (second compound 9.49 µM, first compound 0.000316 µM): 23.1% | viability, T/C (second compound 9.49 µM, first compound 0.001 µM): 20% | viability, T/C (second compound 9.49 µM, first compound 0.00316 µM): 17.2% | viability, T/C (second compound 9.49 µM, first compound 0.01 µM): 16.2% | viability, T/C (second compound 9.49 µM, first compound 0.0316 µM): 15.8% | viability, T/C (second compound 9.49 µM, first compound 0.1 µM): 14.9% | viability, T/C (second compound 30 µM, first compound 0.000316 µM): 9.82% | viability, T/C (second compound 30 µM, first compound 0.001 µM): 9.86% | viability, T/C (second compound 30 µM, first compound 0.00316 µM): 10.5% | viability, T/C (second compound 30 µM, first compound 0.01 µM): 9.81% | viability, T/C (second compound 30 µM, first compound 0.0316 µM): 8.34% | viability, T/C (second compound 30 µM, first compound 0.1 µM): 7.96%
